Tested on: 633275-114-R-J1-PDC complex spheroids, viability
Experiment: Anticancer human tumor 633275-114-R-J1-PDC patient-derived endometrial adenocarcinoma cell line growth inhibition [GQUAD]
Settings: for IC50: curve of first compound; for viability, T/C: stronger effect = lower value; active means viability on the fitted dose curve at most 10% of control; inactive means the rest
Outline: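 Viability of tumor cells grown as complex spheroids with endothelial and stromal cells, exposed to drug combinations. Top concentration at or near clinical Cmax (else 10 microM), diluted in half-log increments.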

[1] = second compound 0.0316 µM, first compound 0.000999 µM
[2] = second compound 0.0316 µM, first compound 0.00316 µM
[3] = second compound 0.0316 µM, first compound 0.00999 µM
[4] = second compound 0.0316 µM, first compound 0.0316 µM
[5] = second compound 0.0316 µM, first compound 0.0999 µM
[6] = second compound 0.0316 µM, first compound 0.316 µM
[7] = second compound 0.1 µM, first compound 0.000999 µM
[8] = second compound 0.1 µM, first compound 0.00316 µM
[9] = second compound 0.1 µM, first compound 0.00999 µM
[10] = second compound 0.1 µM, first compound 0.0316 µM
[11] = second compound 0.1 µM, first compound 0.0999 µM
[12] = second compound 0.1 µM, first compound 0.316 µM
[13] = second compound 0.316 µM, first compound 0.000999 µM
[14] = second compound 0.316 µM, first compound 0.00316 µM
[15] = second compound 0.316 µM, first compound 0.00999 µM
[16] = second compound 0.316 µM, first compound 0.0316 µM
[17] = second compound 0.316 µM, first compound 0.0999 µM
[18] = second compound 0.316 µM, first compound 0.316 µM
[19] = second compound 1 µM, first compound 0.000999 µM
[20] = second compound 1 µM, first compound 0.00316 µM
[21] = second compound 1 µM, first compound 0.00999 µM
[22] = second compound 1 µM, first compound 0.0316 µM
[23] = second compound 1 µM, first compound 0.0999 µM
[24] = second compound 1 µM, first compound 0.316 µM
[25] = second compound 3.16 µM, first compound 0.000999 µM
[26] = second compound 3.16 µM, first compound 0.00316 µM
[27] = second compound 3.16 µM, first compound 0.00999 µM
[28] = second compound 3.16 µM, first compound 0.0316 µM
[29] = second compound 3.16 µM, first compound 0.0999 µM
[30] = second compound 3.16 µM, first compound 0.316 µM
[31] = second compound 10 µM, first compound 0.000999 µM
[32] = second compound 10 µM, first compound 0.00316 µM
[33] = second compound 10 µM, first compound 0.00999 µM
[34] = second compound 10 µM, first compound 0.0316 µM
[35] = second compound 10 µM, first compound 0.0999 µM
[36] = second compound 10 µM, first compound 0.316 µM
[37] = second compound 0.0316 µM, first compound 0.1 µM
[38] = second compound 0.0316 µM, first compound 1 µM
[39] = second compound 0.0316 µM, first compound 3.16 µM
[40] = second compound 0.0316 µM, first compound 10 µM
[41] = second compound 0.1 µM, first compound 0.1 µM
[42] = second compound 0.1 µM, first compound 1 µM
[43] = second compound 0.1 µM, first compound 3.16 µM
[44] = second compound 0.1 µM, first compound 10 µM
[45] = second compound 0.316 µM, first compound 0.1 µM
[46] = second compound 0.316 µM, first compound 1 µM
[47] = second compound 0.316 µM, first compound 3.16 µM
[48] = second compound 0.316 µM, first compound 10 µM
[49] = second compound 1 µM, first compound 0.1 µM
[50] = second compound 1 µM, first compound 1 µM
[51] = second compound 1 µM, first compound 3.16 µM
[52] = second compound 1 µM, first compound 10 µM
[53] = second compound 3.16 µM, first compound 0.1 µM
[54] = second compound 3.16 µM, first compound 1 µM
[55] = second compound 3.16 µM, first compound 3.16 µM
[56] = second compound 3.16 µM, first compound 10 µM
[57] = second compound 10 µM, first compound 0.1 µM
[58] = second compound 10 µM, first compound 1 µM
[59] = second compound 10 µM, first compound 3.16 µM
[60] = second compound 10 µM, first compound 10 µM
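Further: spheroids exposed to the agents for seven days.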
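Wherever viability, T/C is given: percent of DMSO vehicle control viability which is 100%.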

CCc1c2c(nc3ccc(O)cc13)-c1cc3c(c(=O)n1C2)COC(=O)[C@]3(O)CC + Cc1[nH]c2ccc(F)cc2c1-c1nc2c3cccnc3c3ncccc3c2[nH]1
3.09 nM: IC50 (second compound 0.1 µM)
2.27 nM: IC50 (second compound 1 µM)
2.44 nM: IC50 (second compound 0.0316 µM)
1.62 nM: IC50 (second compound 3.16 µM)
2.7 nM: IC50 (second compound 0.316 µM)
1.41 nM: IC50 (second compound 10 µM)
inactive: viability, T/C [1] 69.7% | viability, T/C [2] 42.2% | viability, T/C [3] 36.2% | viability, T/C [4] 31.7% | viability, T/C [5] 30% | viability, T/C [6] 24.7% | viability, T/C [7] 71.1% | viability, T/C [8] 47.1% | viability, T/C [9] 37.2% | viability, T/C [10] 34.3% | viability, T/C [11] 27.3% | viability, T/C [12] 22.3% | viability, T/C [13] 68.8% | viability, T/C [14] 44.2% | viability, T/C [15] 37.5% | viability, T/C [16] 31.4% | viability, T/C [17] 28% | viability, T/C [18] 22.4% | viability, T/C [19] 62.6% | viability, T/C [20] 43.5% | viability, T/C [21] 35.1% | viability, T/C [22] 32.3% | viability, T/C [23] 27.5% | viability, T/C [24] 23.4% | viability, T/C [25] 57.5% | viability, T/C [26] 38.9% | viability, T/C [27] 33.2% | viability, T/C [28] 30.8% | viability, T/C [29] 27.6% | viability, T/C [30] 25.8% | viability, T/C [31] 55.2% | viability, T/C [32] 37.7% | viability, T/C [33] 33% | viability, T/C [34] 29.5% | viability, T/C [35] 24.8% | viability, T/C [36] 23.7%

Cc1cccc(N(C)C(=O)C2C(O)CCN2c2nc(C)cc(C(F)(F)F)c2C#N)c1 (stereo not drawn) + Cc1[nH]c2ccc(F)cc2c1-c1nc2c3cccnc3c3ncccc3c2[nH]1
inactive: viability, T/C [4] 108% | viability, T/C [37] 97.1% | viability, T/C [6] 103% | viability, T/C [38] 94% | viability, T/C [39] 99.8% | viability, T/C [40] 99.4% | viability, T/C [10] 99.2% | viability, T/C [41] 99.9% | viability, T/C [12] 97.4% | viability, T/C [42] 94.3% | viability, T/C [43] 91.6% | viability, T/C [44] 101% | viability, T/C [16] 91.1% | viability, T/C [45] 101% | viability, T/C [18] 99.5% | viability, T/C [46] 98.9% | viability, T/C [47] 98% | viability, T/C [48] 99.2% | viability, T/C [22] 86.4% | viability, T/C [49] 86.2% | viability, T/C [24] 90.1% | viability, T/C [50] 90.4% | viability, T/C [51] 91.7% | viability, T/C [52] 92.9% | viability, T/C [28] 73.8% | viability, T/C [53] 71.6% | viability, T/C [30] 76.7% | viability, T/C [54] 74.4% | viability, T/C [55] 79.3% | viability, T/C [56] 75.5% | viability, T/C [34] 69.6% | viability, T/C [57] 77.7% | viability, T/C [36] 79.1% | viability, T/C [58] 72.6% | viability, T/C [59] 69.8% | viability, T/C [60] 71.2%
> 10000 nM: IC50 (second compound 0.0316 µM) | IC50 (second compound 0.1 µM) | IC50 (second compound 0.316 µM) | IC50 (second compound 1 µM) | IC50 (second compound 3.16 µM) | IC50 (second compound 10 µM)

Cn1ncnc1[C@H]1c2n[nH]c(=O)c3cc(F)cc(c23)N[C@@H]1c1ccc(F)cc1 + Cc1[nH]c2ccc(F)cc2c1-c1nc2c3cccnc3c3ncccc3c2[nH]1
inactive: viability, T/C [1] 96.6% | viability, T/C [2] 83.2% | viability, T/C [3] 83.7% | viability, T/C [4] 75.4% | viability, T/C [5] 66.8% | viability, T/C [6] 64.4% | viability, T/C [7] 93% | viability, T/C [8] 93% | viability, T/C [9] 91.7% | viability, T/C [10] 75.5% | viability, T/C [11] 67.1% | viability, T/C [12] 57.6% | viability, T/C [13] 92.7% | viability, T/C [14] 92% | viability, T/C [15] 82.6% | viability, T/C [16] 82.4% | viability, T/C [17] 69.1% | viability, T/C [18] 57.2% | viability, T/C [19] 91% | viability, T/C [20] 85.4% | viability, T/C [21] 79.1% | viability, T/C [22] 72.6% | viability, T/C [23] 66.6% | viability, T/C [24] 54.2% | viability, T/C [25] 74% | viability, T/C [26] 66.6% | viability, T/C [27] 65.1% | viability, T/C [28] 61.2% | viability, T/C [29] 52.3% | viability, T/C [30] 49.4% | viability, T/C [31] 73.7% | viability, T/C [32] 77.7% | viability, T/C [33] 66.5% | viability, T/C [34] 60.2% | viability, T/C [35] 55.9% | viability, T/C [36] 51.8%
> 316 nM: IC50 (second compound 0.0316 µM) | IC50 (second compound 0.1 µM) | IC50 (second compound 0.316 µM) | IC50 (second compound 1 µM) | IC50 (second compound 10 µM)
257 nM: IC50 (second compound 3.16 µM)

O=C(c1cc(Cc2n[nH]c(=O)c3ccccc23)ccc1F)N1CCN(C(=O)C2CC2)CC1 + Cc1[nH]c2ccc(F)cc2c1-c1nc2c3cccnc3c3ncccc3c2[nH]1
8310 nM: IC50 (second compound 3.16 µM)
inactive: viability, T/C [4] 90% | viability, T/C [37] 88.3% | viability, T/C [6] 88% | viability, T/C [38] 84.7% | viability, T/C [39] 80.5% | viability, T/C [40] 64.5% | viability, T/C [10] 98% | viability, T/C [41] 89.9% | viability, T/C [12] 94% | viability, T/C [42] 79.5% | viability, T/C [43] 80% | viability, T/C [44] 56.9% | viability, T/C [16] 92.1% | viability, T/C [45] 93% | viability, T/C [18] 88.8% | viability, T/C [46] 83.1% | viability, T/C [47] 76% | viability, T/C [48] 55.4% | viability, T/C [22] 90.6% | viability, T/C [49] 89.7% | viability, T/C [24] 88.4% | viability, T/C [50] 77.1% | viability, T/C [51] 74.1% | viability, T/C [52] 56.7% | viability, T/C [28] 69.8% | viability, T/C [53] 67.4% | viability, T/C [30] 68.4% | viability, T/C [54] 63.5% | viability, T/C [55] 59.5% | viability, T/C [56] 48.2% | viability, T/C [34] 68.9% | viability, T/C [57] 66.5% | viability, T/C [36] 70.2% | viability, T/C [58] 62.1% | viability, T/C [59] 61.1% | viability, T/C [60] 49.4%
> 10000 nM: IC50 (second compound 0.0316 µM) | IC50 (second compound 0.1 µM) | IC50 (second compound 0.316 µM) | IC50 (second compound 1 µM) | IC50 (second compound 10 µM)
